Source: patent US20190351076A1, “TUMOR CELL XENOGRAFT MODEL IN ZEBRAFISH, AND METHODS OF CONSTRUCTING AND USING THE SAME” (NANJING EMORY BIOTECHNOLOGY CO., LTD., priority 2017, published 2019)

Assays:
zebrafish embryos = zebrafish embryos two days after fertilization, treated for 3 days
Procedure: For the quantitative analysis, the antitumor effect is calculated according to the following formula: the tumor inhibition rate of the drug=(the fluorescence intensity of the treatment group/the fluorescence intensity of the control group)*100%.
1. Four groups, each group having four randomly selected zebrafish embryos that were two days old after fertilization, were placed in a solution of curcumin containing 0.1% DMSO. The curcumin concentrations were 10 μM, 30 μM, 50 μM, and 70 μM, respectively, and the treatment was continued for 3 days.

[1] = test system: patient-derived primary lung cancer cells; assay: Patient-derived lung cancer cell xenograft model in zebrafish, fluorescence quantification; assay type: in vivo, human; settings: 50-μM and 5-μM soak for three days, day 7 after the injection
Procedure: (§1) The patient-derived clinical tissue biopsy that was a surgical specimen of lung cancer was placed in physiological saline. The blood clot, necrotic tissue, fat and connective tissues on the surface of the tumor tissue were removed under aseptic conditions. The tissue was cut by an ophthalmic scissor after sterilization, and washed 2 times with sterile phosphate buffer (pH 7.4). A small amount of phosphate buffer was added, and the tissue was repeatedly cut with an ophthalmic scissor until the tissue became a paste and was about 1 mm^3 in size. 0.25% trypsin was added and the tissue was digested at 37° C. for 10 minutes. […] The cells were resuspended in RPMI-1640 medium containing 10% FBS (fetal calf serum).
(§2) The primary cells obtained by dissociation were stained with CM-Dil, where the final dye concentration was 2 μg/ml, and the staining time was 1 hour. The dye was removed by centrifugation, and the cells were washed with a phosphate buffer and re-suspended to a cell density of 1×10^4/μl.
(§3) The stained cells were filled into a microinjector. […]
Within 4 days after the injection, the growth, metastasis and spread of the cells derived from the patient in the zebrafish were observed under a fluorescence microscopy and photographed. […]

lung cancer = assay: Clinical outcome of drug treatment in the lung cancer patients; assay type: in vivo, human
A549 = assay: Human lung cancer cell line xenograft model in zebrafish (A549); assay type: in vivo; settings: 50 μM and 5 μM soak for three days, day 7 after injection
[2] = test system: patient-derived primary gastric cancer cells; assay: Patient-derived gastric cancer cell xenograft model in zebrafish, fluorescence quantification; assay type: in vivo, human; settings: 4000 μM and 400 μM soak for three days, day 7 after the injection
Procedure: as §1, with “gastric” for “lung”, “mm^3.” for “mm^3 in size.”, “re-suspended” for “resuspended”
as §2, §3
Within 7 days after the injection, the growth, metastasis and spread of the cells derived from the patient in the zebrafish were observed under a fluorescence microscopy and photographed. […]

gastric cancer = assay: Clinical outcome of 5-FU treatment in the gastric cancer patients; assay type: in vivo, human
SGC-7901 = assay: Human gastric cancer cell line xenograft model in zebrafish (SGC-7901); assay type: in vivo; settings: SGC-7901 xenograft; 4000 μM and 400 μM soak for three days; day 7 after injection
Procedure: (§4) 4000 μM and 400 μM5-FU were used to soak the zebrafish embryos injected with gastric cancer cell lines (SGC-7901 and AGS) (constructed as in Example 1) for three consecutive days, and 0.1% DMSO was used as a solvent control.
(§5) The red cells were photographed under a fluorescence microscope, and the red fluorescence intensity was quantified by Image Pro Plus software to calculate the anti-tumor effect of 5-FU by a formula: Tumor inhibition rate of the drug=(the fluorescence intensity of the treatment group/the fluorescence intensity of the control group)*100% (see FIG. 4).

AGS = assay: Human gastric cancer cell line xenograft model in zebrafish (AGS); assay type: in vivo; settings: 4000 μM and 400 μM soak for three days, day 7 after injection
Procedure: as §4, §5

CC(=O)O[C@@]12CO[C@@H]1C[C@H](O)[C@@]1(C)C(=O)[C@H](O)C3=C(C)[C@@H](OC(=O)[C@H](O)[C@@H](NC(=O)OC(C)(C)C)c4ccccc4)C[C@@](O)([C@@H](OC(=O)c4ccccc4)[C@H]21)C3(C)C [docetaxel]
highest concentration within the safe range for embryos (zebrafish embryos): 10 µM

COc1cc2ncnc(Nc3ccc(F)c(Cl)c3)c2cc1OCCCN1CCOCC1 [gefitinib]
highest concentration within the safe range for embryos (zebrafish embryos): 50 µM
sensitivity of patient-derived lung cancer cells to gefitinib (tumor inhibition effect) ([1]; *5 and *6 patients): sensitive
sensitivity of patient-derived lung cancer cells to gefitinib ([1]; *7 and *8 patients): not sensitive
clinical effect of gefitinib in the treatment of the patients (lung cancer; *5 and *6 patients with lung cancer): significant
clinical symptoms after treatment (lung cancer; *7 and *8 patients with lung cancer): not significantly improved
sensitivity of lung cancer cell line to gefitinib (A549): sensitive

COc1cc(/C=C/C(=O)CC(=O)/C=C/c2ccc(O)c(OC)c2)ccc1O [curcumin]
highest concentration within the safe range for embryos (zebrafish embryos): 50 µM

O=c1[nH]cc(F)c(=O)[nH]1 [5-FU, 5-fluorouracil]
sensitivity of patient-derived gastric cancer cells to 5-FU (tumor inhibition effect) ([2]; #1 and #2 patients): not sensitive
sensitivity of patient-derived gastric cancer cells to 5-FU (tumor proliferation inhibition) ([2]; #3 and #4 patients): sensitive
clinical effect of 5-FU in the treatment of the patients (gastric cancer; #1 and #2 patients with gastric cancer): not significant
clinical symptoms after treatment with 5-FU (gastric cancer; #3 and #4 patients with gastric cancer): significantly improved
sensitivity of gastric cancer cell line to 5-FU (SGC-7901): sensitive
sensitivity of gastric cancer cell line to 5-FU (AGS): sensitive
